Patent US20150105429A1, “BENZYL SULFONAMIDE DERIVATIVES AS RORC MODULATORS” (Genentech, Inc., priority 2011, published 2015)
pIC50: −log10 of the molar value.

The molecules below were run against T1, RORc ligand binding domain (Homo sapiens, UniProt P51449) (assay: In Vitro RORc Ligand Binding Assay). Settings: radioligand 25-[3H]hydroxycholesterol 6 nM; 0.6 ug/mL RORc receptor; 3 h at 25° C.; read-out: IC50 values (micromolar) for RORc affinity.
T1 construct: host or cells: E. coli
T1 sequence (P51449 269-508 limits assumed): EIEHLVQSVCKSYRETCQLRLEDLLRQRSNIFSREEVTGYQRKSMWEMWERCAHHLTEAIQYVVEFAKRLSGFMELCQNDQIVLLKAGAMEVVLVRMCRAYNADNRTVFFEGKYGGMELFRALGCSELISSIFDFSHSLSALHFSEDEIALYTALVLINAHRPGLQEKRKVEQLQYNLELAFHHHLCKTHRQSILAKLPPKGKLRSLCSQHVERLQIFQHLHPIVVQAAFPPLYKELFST
Method: This assay was used to determine a compound's potency in inhibiting activity of RORc by determining, Kiapp, IC50, or percent inhibition values.
On day of the assay, 100 uL of 0.05% CHAPS (in deionized H2O) was added to all wells of the GFB Unifilter plate and allowed soak for 1 h. A wash buffer of 50 mM HEPES (pH 7.4), 150 mM NaCl, and 5 mM MgCl2 was prepared to wash the filter plate. To prepare an assay buffer, BSA was added to the wash buffer to reach 0.01% and DTT was added to reach 1 mM.
The 20× compound stocks were diluted in DMSO with Assay Buffer 4-fold to reach 5× the final test concentration in 25% DMSO (10 uL compound+30 uL Assay Buffer). Solutions were mixed by aspiration several times with a pipette set on 50 uL volume. For the assay, 10 uL of 5× compound stock solutions in 25% DMSO were added to the assay plate in duplicate.
For two point screening, 10 mM stock compound solutions were diluted in DMSO to obtain 200 uM (20× the high test concentration) and then diluted 10-fold further to reach 20 uM (20× the low test concentration). The 20× stocks were diluted 4-fold with Assay Buffer (10 uL compound+30 uL Assay Buffer) to reach 5× the test concentrations (50 uM and 5 uM) and 10 uL were added to two assay plates for the duplicate wells. With each concentration tested on 2 plates, each set of 80 compounds used 4 assay plates (1 uM and 10 uM, with n=2).
For 25-hydroxycholesterol in 25% DMSO/75% Assay Buffer; 10 uL per well was used for NSB samples. Wells for Total Binding and No Receptor sample determination contained 10 uL of 25% DMSO/75% Assay Buffer per well.
Radioligand (25-[^3H]hydroxycholesterol) Preparation
Added 20 uL to all wells to reach 6 nM final in the assay.
Stock receptor solution was diluted in assay buffer to obtain 1.5 ug/mL in Assay Buffer. 20 uL was added to all wells. For No R samples, 20 uL Assay Buffer was substituted for receptor solution.
Assay plates were 96-well polypropylene V-bottom plates. 10 uL of 5× compound in 25% DMSO/75% Assay Buffer was added to Test wells. 10 uL of 25% DMSO/75% Assay Buffer was added to Total Binding or No Receptor wells. 10 uL of 5 uM 25-hydroxycholesterol in 25% DMSO/75% Assay Buffer was added to NSB wells. […] 20 uL of 1.5 ug/mL RORc receptor was added to wells (or 40 uL Assay Buffer to No R wells). Following addition to the wells, the plates were incubated 3 h at 25° C.
Using a Packard Filtermate Harvester, the filter plates were washed 4 times following transfer of the incubated samples. Plates were dry-filtered completely (2 h at 50° C. or overnight at room temperature). 50 uL Microscint 0 was added to all wells and read on Topcount protocol Inverted.
Final concentrations were as follows: 50 mM HEPES buffer (pH 7.4); 150 mM NaCl; 1 mM DTT; 5 mM MgCl2; 0.01% BSA; 5% DMSO; 0.6 ug/mL RORc receptor; 6 nM 25-[^3H]hydroxycholesterol. For NSB wells, 1 uM 25-hydroxycholesterol was also present.
`CC(C)CN(Cc1ccc(-c2cccc(S(C)(=O)=O)c2)s1)S(=O)(=O)c1cccnc1` [Compound 62, Pyridine-3-sulfonic acid isobutyl-[5-(3-methanesulfonyl-phenyl)-thiophen-2-ylmethyl]-amide] gave a pIC50 of 5.38. For `CC(C)CN(Cc1ccc(-c2cc(F)c(CO)c(S(C)(=O)=O)c2)s1)S(=O)(=O)Cc1ccccc1` [Compound 63, N-((5-(3-fluoro-4-(hydroxymethyl)-5-(methylsulfonyl)phenyl)thiophen-2-yl)methyl)-N-isobutyl-1-phenylmethanesulfonamide], the pIC50 was 5.30. For `CC(C)CN(Cc1ncc(-c2ccc(S(C)(=O)=O)c(F)c2)s1)S(=O)(=O)Cc1ccccc1` [Compound 64, N-((5-(3-fluoro-4-(methylsulfonyl)phenyl)thiazol-2-yl)methyl)-N-isobutyl-1-phenylmethanesulfonamide], the pIC50 was 5.70. Molecule `CC(C)CN(Cc1ccc(-c2ccc(S(C)(=O)=O)cc2)cn1)S(=O)(=O)Cc1ccccc1` [Compound 65, N-isobutyl-N-((5-(4-(methylsulfonyl)phenyl)pyridin-2-yl)methyl)-1-phenylmethanesulfonamide] has a pIC50 of 5.70. Work on `CC(C)CN(Cc1ccc(-c2ccc(S(C)(=O)=O)cc2)nc1)S(=O)(=O)Cc1ccccc1` [Compound 66, N-isobutyl-N-((6-(4-(methylsulfonyl)phenyl)pyridin-3-yl)methyl)-1-phenylmethanesulfonamide] yielded a pIC50 of 6.11. With `CC(C)CN(Cc1cccc(-c2cccc(S(C)(=O)=O)c2)c1)S(=O)(=O)Cc1ccccc1` [Compound 67, N-isobutyl-N-((3′-(methylsulfonyl)-[1,1′-biphenyl]-3-yl)methyl)-1-phenylmethanesulfonamide] the pIC50 was 5.52. With `CC(C)CN(Cc1csc(-c2ccc(S(C)(=O)=O)cc2)c1)S(=O)(=O)Cc1ccccc1` [Compound 68, N-isobutyl-N-((5-(4-(methylsulfonyl)phenyl)thiophen-3-yl)methyl)-1-phenylmethanesulfonamide] the pIC50 was 6.49. Molecule `CC(C)CN(Cc1ccc(-c2ccc(S(C)(=O)=O)cc2)c(C#N)c1)S(=O)(=O)Cc1ccccc1` [Compound 69, N-((2-cyano-4′-(methylsulfonyl)-[1,1′-biphenyl]-4-yl)methyl)-N-isobutyl-1-phenylmethanesulfonamide] has a pIC50 of 7.13.
